{"source": "ChEMBL document CHEMBL5465560", "about": "“Selectivity Literature for EUbOPEN Chemogenomic Library” (2024)", "key": {"[1]": {"molecular_target": "T1, Serine/threonine-protein kinase LATS1 (Homo sapiens) (UniProt O95835)", "T1 sequence (whole entry)": "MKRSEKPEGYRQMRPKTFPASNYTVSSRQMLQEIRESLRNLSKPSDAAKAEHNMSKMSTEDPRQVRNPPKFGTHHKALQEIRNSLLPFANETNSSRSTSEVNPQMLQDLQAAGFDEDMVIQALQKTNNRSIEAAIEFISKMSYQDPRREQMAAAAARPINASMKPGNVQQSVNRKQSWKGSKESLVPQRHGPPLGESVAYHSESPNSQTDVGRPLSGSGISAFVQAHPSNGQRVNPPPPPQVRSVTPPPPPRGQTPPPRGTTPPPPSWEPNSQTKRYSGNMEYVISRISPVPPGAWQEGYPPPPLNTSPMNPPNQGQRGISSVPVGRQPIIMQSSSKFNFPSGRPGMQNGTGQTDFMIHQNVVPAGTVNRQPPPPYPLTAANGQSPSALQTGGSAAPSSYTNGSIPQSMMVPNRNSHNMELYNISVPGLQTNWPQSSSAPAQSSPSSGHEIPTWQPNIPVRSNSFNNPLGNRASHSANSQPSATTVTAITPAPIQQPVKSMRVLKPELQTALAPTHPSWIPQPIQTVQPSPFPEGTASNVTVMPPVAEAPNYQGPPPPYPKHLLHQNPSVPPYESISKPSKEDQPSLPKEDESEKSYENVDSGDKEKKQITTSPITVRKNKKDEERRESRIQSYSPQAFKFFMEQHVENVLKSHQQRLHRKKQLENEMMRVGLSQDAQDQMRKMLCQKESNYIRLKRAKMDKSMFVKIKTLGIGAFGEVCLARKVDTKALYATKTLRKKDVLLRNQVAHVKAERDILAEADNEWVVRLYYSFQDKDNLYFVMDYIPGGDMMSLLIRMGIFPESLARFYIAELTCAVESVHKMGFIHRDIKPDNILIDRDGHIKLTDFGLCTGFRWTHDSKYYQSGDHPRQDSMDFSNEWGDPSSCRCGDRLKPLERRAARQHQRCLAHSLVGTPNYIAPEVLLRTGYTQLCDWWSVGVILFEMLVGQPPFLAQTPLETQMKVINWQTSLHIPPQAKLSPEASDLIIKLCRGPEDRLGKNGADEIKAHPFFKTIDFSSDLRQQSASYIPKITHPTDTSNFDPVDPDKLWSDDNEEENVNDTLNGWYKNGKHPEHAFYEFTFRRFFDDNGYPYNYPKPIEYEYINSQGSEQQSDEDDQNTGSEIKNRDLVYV", "assay": "Selectivity interaction (KinomeScan (DiscoverX)) EUB0000607a LATS1", "details": "at 10 µM"}, "[2]": {"molecular_target": "Tyrosine-protein kinase Fgr (Homo sapiens) (UniProt P09769)", "sequence (P09769 2-529 limits assumed)": "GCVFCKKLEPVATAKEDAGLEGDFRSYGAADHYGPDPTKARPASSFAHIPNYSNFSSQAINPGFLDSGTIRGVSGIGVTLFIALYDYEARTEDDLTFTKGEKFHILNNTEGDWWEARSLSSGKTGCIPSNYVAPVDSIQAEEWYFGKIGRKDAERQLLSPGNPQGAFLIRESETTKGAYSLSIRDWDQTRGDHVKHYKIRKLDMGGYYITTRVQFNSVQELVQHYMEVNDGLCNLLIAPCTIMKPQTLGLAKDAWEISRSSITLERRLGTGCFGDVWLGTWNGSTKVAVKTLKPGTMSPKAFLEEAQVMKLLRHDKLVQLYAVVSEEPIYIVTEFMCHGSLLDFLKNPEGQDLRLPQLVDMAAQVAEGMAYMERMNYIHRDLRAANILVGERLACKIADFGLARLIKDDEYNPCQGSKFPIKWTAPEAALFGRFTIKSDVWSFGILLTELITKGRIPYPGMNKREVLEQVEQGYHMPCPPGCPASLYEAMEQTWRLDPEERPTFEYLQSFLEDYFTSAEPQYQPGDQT", "assay": "Selectivity interaction (SelectScreen profiling (Invitrogen)) EUB0000607a FGR", "details": "at 2 µM"}, "[3]": {"molecular_target": "Focal adhesion kinase 1 (Homo sapiens, UniProt Q05397)", "sequence (Q05397 2-1052 limits assumed)": "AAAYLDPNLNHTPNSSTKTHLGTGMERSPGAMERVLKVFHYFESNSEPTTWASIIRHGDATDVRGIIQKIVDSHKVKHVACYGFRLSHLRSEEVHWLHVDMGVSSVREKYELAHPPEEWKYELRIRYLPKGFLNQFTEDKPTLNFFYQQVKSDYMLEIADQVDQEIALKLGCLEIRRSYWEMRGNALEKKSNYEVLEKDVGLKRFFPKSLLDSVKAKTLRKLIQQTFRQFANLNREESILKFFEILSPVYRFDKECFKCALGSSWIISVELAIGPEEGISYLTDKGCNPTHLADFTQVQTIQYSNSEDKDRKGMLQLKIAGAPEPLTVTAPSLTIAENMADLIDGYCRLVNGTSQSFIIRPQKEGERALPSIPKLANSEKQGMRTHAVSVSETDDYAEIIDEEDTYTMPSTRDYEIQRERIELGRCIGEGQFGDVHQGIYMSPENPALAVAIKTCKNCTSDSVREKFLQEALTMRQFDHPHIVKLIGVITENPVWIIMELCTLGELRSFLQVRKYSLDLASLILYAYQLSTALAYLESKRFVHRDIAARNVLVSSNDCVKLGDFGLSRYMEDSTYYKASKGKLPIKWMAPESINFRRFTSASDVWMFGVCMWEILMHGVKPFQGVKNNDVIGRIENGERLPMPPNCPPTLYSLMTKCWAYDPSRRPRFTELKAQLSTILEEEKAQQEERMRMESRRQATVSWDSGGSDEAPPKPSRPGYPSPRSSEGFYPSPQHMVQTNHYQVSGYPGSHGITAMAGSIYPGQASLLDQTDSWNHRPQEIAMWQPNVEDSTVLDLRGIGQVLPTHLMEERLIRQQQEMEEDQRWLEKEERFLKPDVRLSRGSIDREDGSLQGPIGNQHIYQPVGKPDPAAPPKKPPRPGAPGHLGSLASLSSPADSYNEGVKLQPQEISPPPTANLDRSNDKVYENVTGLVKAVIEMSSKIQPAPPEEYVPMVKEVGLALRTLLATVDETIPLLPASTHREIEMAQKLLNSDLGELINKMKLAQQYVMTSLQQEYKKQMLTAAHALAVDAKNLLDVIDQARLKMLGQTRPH", "assay": "Selectivity interaction (Upstate Kinase Profiler service (Millipore)) EUB0000056c PTK2", "details": "at 1 µM"}, "[4]": {"molecular_target": "Serine/threonine-protein kinase PRP4 homolog (Homo sapiens) (UniProt Q13523)", "sequence (Q13523 whole entry)": "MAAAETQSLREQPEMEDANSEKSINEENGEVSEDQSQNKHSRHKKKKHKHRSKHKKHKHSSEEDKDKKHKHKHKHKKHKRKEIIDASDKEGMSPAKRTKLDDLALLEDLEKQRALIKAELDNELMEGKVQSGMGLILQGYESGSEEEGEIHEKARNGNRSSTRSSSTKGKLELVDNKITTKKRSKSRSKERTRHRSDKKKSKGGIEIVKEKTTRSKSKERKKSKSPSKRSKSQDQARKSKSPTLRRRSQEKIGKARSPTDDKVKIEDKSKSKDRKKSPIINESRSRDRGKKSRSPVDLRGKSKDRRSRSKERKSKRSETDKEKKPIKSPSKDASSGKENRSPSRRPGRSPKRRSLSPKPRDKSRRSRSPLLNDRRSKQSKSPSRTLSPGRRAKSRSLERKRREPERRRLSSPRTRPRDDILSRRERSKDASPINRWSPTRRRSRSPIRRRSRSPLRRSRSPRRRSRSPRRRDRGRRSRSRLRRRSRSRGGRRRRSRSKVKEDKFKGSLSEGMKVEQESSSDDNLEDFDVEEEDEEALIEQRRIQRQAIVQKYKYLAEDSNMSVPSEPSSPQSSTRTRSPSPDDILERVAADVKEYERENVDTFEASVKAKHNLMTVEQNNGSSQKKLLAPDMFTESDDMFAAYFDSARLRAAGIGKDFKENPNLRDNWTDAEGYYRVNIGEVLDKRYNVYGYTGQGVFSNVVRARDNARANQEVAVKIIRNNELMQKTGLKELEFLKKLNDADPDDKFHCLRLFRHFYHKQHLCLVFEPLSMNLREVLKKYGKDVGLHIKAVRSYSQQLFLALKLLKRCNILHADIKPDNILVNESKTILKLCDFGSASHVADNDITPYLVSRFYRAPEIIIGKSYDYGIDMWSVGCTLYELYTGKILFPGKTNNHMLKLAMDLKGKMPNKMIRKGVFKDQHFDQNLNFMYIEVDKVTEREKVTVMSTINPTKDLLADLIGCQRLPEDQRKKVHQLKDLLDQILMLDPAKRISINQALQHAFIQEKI", "assay": "Selectivity interaction (ActivX KiNativ screen (kinase selectivity in THP-1 cell lysates)) EUB0000639a PRPF4", "assay_type": "subcellular", "details": "lysate, at 5 µM"}, "[5]": {"molecular_target": "T2, Serine/threonine-protein kinase Sgk2 (Homo sapiens) (UniProt Q9HBY8)", "T2 sequence (whole entry)": "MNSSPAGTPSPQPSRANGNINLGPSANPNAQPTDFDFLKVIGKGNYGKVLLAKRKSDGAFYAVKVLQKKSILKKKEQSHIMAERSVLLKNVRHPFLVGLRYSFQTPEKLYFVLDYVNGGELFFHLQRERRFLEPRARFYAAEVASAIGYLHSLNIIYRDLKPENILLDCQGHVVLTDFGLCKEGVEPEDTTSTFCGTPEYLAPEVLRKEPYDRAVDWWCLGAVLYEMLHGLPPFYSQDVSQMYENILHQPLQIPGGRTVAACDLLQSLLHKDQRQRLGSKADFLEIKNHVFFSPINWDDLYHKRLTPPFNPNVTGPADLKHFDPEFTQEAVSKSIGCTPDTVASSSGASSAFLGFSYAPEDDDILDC", "assay": "Selectivity interaction (KinomeScan (DiscoverX)) EUB0000695a SGK2", "details": "at 100 nM"}, "[6]": {"molecular_target": "Ribosomal protein S6 kinase alpha-5 (Homo sapiens) (UniProt O75582)", "sequence (O75582 whole entry, looked up)": "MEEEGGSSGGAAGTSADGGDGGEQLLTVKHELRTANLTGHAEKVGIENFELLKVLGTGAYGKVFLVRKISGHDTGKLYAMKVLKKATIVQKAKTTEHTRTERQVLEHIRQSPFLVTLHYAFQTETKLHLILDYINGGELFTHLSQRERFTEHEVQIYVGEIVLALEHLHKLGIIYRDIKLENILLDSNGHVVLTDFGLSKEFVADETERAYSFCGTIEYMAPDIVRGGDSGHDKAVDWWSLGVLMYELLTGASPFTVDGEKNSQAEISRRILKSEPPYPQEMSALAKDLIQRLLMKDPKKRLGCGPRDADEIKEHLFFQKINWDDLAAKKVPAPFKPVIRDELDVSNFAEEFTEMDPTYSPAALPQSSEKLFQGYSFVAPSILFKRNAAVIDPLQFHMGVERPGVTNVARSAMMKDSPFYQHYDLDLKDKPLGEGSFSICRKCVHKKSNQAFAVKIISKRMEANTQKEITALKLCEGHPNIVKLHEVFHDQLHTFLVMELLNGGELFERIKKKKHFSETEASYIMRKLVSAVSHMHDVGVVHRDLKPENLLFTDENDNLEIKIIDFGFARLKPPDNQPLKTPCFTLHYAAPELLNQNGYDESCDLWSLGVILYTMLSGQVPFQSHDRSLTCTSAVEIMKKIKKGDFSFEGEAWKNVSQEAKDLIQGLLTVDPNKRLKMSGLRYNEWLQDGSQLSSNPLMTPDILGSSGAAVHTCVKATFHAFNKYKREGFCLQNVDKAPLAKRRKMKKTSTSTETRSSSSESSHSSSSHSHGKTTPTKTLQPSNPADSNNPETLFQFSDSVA", "assay": "Selectivity interaction (KinomeScan (DiscoverX)) EUB0000695a RPS6KA5", "details": "at 100 nM"}, "[7]": {"molecular_target": "Serine/threonine-protein kinase 32B (Homo sapiens) (UniProt Q9NY57)", "sequence (Q9NY57 whole entry)": "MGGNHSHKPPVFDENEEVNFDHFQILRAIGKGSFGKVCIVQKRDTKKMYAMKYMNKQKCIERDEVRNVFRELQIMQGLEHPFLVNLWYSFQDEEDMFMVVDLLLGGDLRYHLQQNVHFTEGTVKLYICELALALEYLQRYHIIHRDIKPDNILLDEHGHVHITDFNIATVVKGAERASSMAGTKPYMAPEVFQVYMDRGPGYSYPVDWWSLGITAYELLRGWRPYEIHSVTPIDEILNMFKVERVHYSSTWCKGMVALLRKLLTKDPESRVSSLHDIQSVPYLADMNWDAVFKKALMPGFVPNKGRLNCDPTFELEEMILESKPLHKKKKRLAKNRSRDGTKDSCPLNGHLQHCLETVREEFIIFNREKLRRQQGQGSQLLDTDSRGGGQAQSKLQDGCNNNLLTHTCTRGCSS", "assay": "Selectivity interaction (KinomeScan (DiscoverX)) EUB0000655a STK32B", "details": "at 10 µM"}, "[8]": {"molecular_target": "T3, Mitogen-activated protein kinase 12 (Homo sapiens) (UniProt P53778)", "T3 sequence (whole entry)": "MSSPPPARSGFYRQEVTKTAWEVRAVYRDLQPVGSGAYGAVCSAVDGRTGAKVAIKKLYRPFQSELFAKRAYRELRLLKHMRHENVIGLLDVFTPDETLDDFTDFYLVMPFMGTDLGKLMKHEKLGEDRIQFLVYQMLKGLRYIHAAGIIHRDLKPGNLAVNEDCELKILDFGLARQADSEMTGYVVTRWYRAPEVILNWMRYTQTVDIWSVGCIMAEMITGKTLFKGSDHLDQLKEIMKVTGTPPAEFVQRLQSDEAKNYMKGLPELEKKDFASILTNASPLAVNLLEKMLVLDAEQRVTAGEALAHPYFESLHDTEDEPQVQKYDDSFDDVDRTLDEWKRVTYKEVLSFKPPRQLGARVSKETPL", "assay": "Selectivity interaction (KinomeScan (DiscoverX)) EUB0000229b MAPK12", "details": "at 10 µM"}, "[9]": {"molecular_target": "T4, Serine/threonine-protein kinase ULK3 (Homo sapiens) (UniProt Q6PHR2)", "T4 sequence (whole entry)": "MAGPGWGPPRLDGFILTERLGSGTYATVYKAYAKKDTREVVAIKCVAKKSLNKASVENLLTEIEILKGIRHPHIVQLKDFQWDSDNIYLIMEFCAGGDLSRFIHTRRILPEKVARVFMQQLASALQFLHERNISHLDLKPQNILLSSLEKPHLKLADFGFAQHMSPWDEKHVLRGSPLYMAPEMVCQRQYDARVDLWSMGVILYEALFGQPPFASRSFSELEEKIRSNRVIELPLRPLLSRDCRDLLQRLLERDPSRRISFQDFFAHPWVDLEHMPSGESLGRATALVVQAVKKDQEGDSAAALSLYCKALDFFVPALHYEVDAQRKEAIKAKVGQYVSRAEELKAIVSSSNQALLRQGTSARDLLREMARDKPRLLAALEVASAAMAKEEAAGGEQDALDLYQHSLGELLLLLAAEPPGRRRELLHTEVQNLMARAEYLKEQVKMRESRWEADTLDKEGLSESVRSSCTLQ", "assay": "Selectivity interaction (ActivX KiNativ screen (ex vivo kinase selectivity in human PBMCs)) EUB0001619a ULK3", "assay_type": "cell-based", "details": "PBMC, at 1 µM"}}, "data": [{"smiles": "CNC(=O)Nc1ccc(-c2nc(N3CC4CCC(C3)O4)c3cnn(C4CCC5(CC4)OCCO5)c3n2)cc1", "values": [{"measurement": "% of control", "setting": "[1]", "value": 95, "unit": "%"}, {"measurement": "% of inhibition", "setting": "[2]", "value": 1, "unit": "%"}]}, {"smiles": "Cc1ccc(-c2ccc3c(ccc4sc5c(c43)NC[C@@H](C)NC5=O)n2)cn1", "values": [{"measurement": "% of inhibition", "setting": "[3]", "value": -2, "unit": "%"}]}, {"smiles": "CC[C@@H]1[C@H](F)C(=O)N[C@@H]1COc1nccc2cc(C(N)=O)c(OC)cc12", "note": "[ZIMLOVISERTIB]", "values": [{"measurement": "% of inhibition", "setting": "[4]", "value": 85.9, "unit": "%"}]}, {"smiles": "Cc1cc(F)c(C(=O)Nc2cccc(-c3nncn3C(C)C)n2)cc1-n1cnc(C2CC2)c1", "values": [{"measurement": "% of control", "setting": "[5]", "value": 100, "unit": "%"}, {"measurement": "% of control", "setting": "[6]", "value": 100, "unit": "%"}]}, {"smiles": "CN(C)CCOc1ccc(-c2nc(-c3ccncc3)c(-c3ccc4c(c3)CC/C4=N\\O)[nH]2)cc1", "values": [{"measurement": "% of control", "setting": "[7]", "value": 85, "unit": "%"}]}, {"smiles": "COc1cc(N(C)c2ccnc3ccc(C(F)(F)F)cc23)cc(OC)c1OC", "values": [{"measurement": "% binding", "setting": "[8]", "value": 100, "unit": "%"}]}, {"smiles": "N#Cc1cccc(-c2c[nH]c3ncnc(N4CCOCC4)c23)c1", "values": [{"measurement": "% of inhibition", "setting": "[9]", "value": 5, "unit": "%"}]}]}
